Laboratory results published in patent publication US20250304576A1 (Cancer Research Technology Limited, priority 2022, published 2025).

What was measured:
PC3M cells = assay: Cell viability, alamarBlue assay, PC3M cells; format: cell-based; settings: treatment for 48 hours
Procedure: PC3, PC3M, LNCaP Al, cells were grown in RPMI 1640 media and PANC1 and MiaPac-2 cells were grown in Dulbecco's Modified Eagle's Media (DMEM) which was supplemented with 10% (v/v) Foetal Calf Serum (FCS) (Charcoal-stripped for LNCaP Als), L-glutamine ([…]) and penicillin/streptomycin (250 units/ml; 100 μg/ml). All cells were incubated in a humidified atmosphere at 37° C. and 5% (v/v) CO2. Cells were cultured as a monolayer in 10 ml media in […] vented flasks and grown until subculture was required.
Cell viability determination: Cells (1000 cells/100 μl) were plated into 96 well plates and incubated for 24 hours at 37° C. and 5% (v/v) CO2 before being treated with SU1433. After incubation with SU1433 for 48 h, cell viability was measured using the alamarBlue® Assay (Thermofisher, UK). The media was removed and replaced with a 1:10 media to alamar blue solution. After a 1 h incubation at 37° C. and 5% CO2, the fluorescence was measured at 530-560 nm excitation wavelength and 590 nm emission wavelength in a fluorescence plate reader. All treatment were measured in duplicate wells and repeated at least 3 times. The results represent the fractional survival of untreated controls±SD.

PC3M xenografts = assay: In vivo assessment in nude mice bearing PC3M xenografts; settings: once daily i.p. dose of 50 mg/kg, over 21 days
Procedure: Xenografts were established in nude mice by subcutaneous injection of 5×10^6 PC3M-Luc-C6 cells. After 8 days, mice bearing tumours of approximately 60 mm^3 in volume were randomised into 3 treatment groups of 8 mice in each. One group of mice received intraperitoneal injection (i.p.) of 50 mg/kg SU1433 once daily dissolved in a vehicle of 5% (v/v) DMSO, 5% (v/v) solutol HS15 and 15% (w/v) hydroxypropyl-p-cyclodextrin in water for injection (90%) for a total of 21 days. Another group received once daily i.p. injection of the vehicle (100 μL) alone whilst the last group received no treatment. To monitor potential toxicity, body weight was measured daily, and experimental animals were evaluated for signs of distress using standard guidelines. Mice whose xenografts reached 1,900 mm^3 were euthanised. Subcutaneous tumours were measured with calipers immediately before treatment and every 2 or 3 days thereafter. On the assumption of ellipsoidal geometry, diameter measurements were converted to an approximate volume by multiplying half the longest diameter by the square of the mean of the 2 shorter diameters. For every animal, relative tumour volume (volume at any time point divided by volume immediately before treatment) was plotted against time, and the area under the time-volume curves was determined by trapezoidal approximation. […]

CC(C)(C)C#Cc1cc(-c2ccnc(N)c2)cc2c(N)n[nH]c12 [Example 137, 5-(2-Aminopyridin-4-yl)-7-(3,3-dimethylbut-1-yn-1-yl)-1H-indazol-3-amine]
viability of PC3M cells (PC3M cells): reduced the viability
inhibition of tumour growth (PC3M xenografts): approximately 60%
